Measurements reported in patent US20230022841A1, “ISARIDIN CYCLODEPSIPEPTIDE DERIVATIVES, AND PREPARATION AND APPLICATION THEREOF” (Sun Yat-sen University, priority 2022, published 2023).

Assays:
[1] = tested on: ADP-induced platelet aggregation; assay: ADP-induced platelet aggregation in vitro (platelet-rich plasma, turbidimetric method); type: cell-based, Kunming mice; settings: 5 min; mouse platelet-rich plasma, ADP inducer, 37° C., maximum aggregation rate within 5 min; values stated as approximate; read-out: IC50, inhibition of ADP-induced platelet aggregation
Method: Compounds I-1 to I-9 and I-13 to I-15 prepared in Example 1 were tested for their inhibitory effects on the ADP-induced platelet aggregation in vitro to evaluate the anti-thrombotic activities, and the test process was specifically described as follows.
Kunming mice were anesthetized with pentobarbital sodium, and blood was collected from the celiac artery, where the syringe was added with 3.2% sodium citrate for anti-coagulation in advance (a volume ratio of whole blood to the anticoagulant was 9:1). The mixture was gently mixed and centrifuged at 1000 r/min for 10 min to collect the supernatant as the platelet-rich plasma (PRP). The remaining part was centrifuged at 3000 r/min for 10 min to obtain platelet-poor plasma (PPP). […]
For the blank control group, 1% DMSO was mixed with 295 μL of PRP; for the drug group, 5 μL of the isaridin derivatives with different concentrations (a final concentration of 0-100 μM) was mixed with 295 μL of PRP; and regarding the positive control group, aspirin was mixed with plasma to a final concentration of 120 μM. […] Three parallel samples were tested for each group, and the platelet aggregation rate was measured at 37° C. by turbidimetric method, where the maximum aggregation rate within 5 min was recorded.
The platelet aggregation rate was expressed as the maximum platelet aggregation rate, and the results were expressed as the inhibition rate. […]

[2] = tested on: LPS-induced RAW264.7 cells; assay: NO release from LPS-induced macrophage RAW264.7 cells (Griess); type: cell-based; settings: Mus musculus, LPS 1 μg/mL, 24 h, Griess reagent, read-out: half maximal inhibitory concentration (IC50), NO release inhibition
Method: The effect of the compounds I-1 to I-9 and I-13 to I-15 prepared in Example 1 on the NO release from LPS-induced macrophage RAW264.7 cells was investigated to evaluate the anti-inflammatory activity, which was specifically described as follows.
Lipopolysaccharide (LPS); indomethacin (Indomethacin, Indo, positive control); mouse mononuclear macrophages (RAW264.7); dimethyl sulfoxide (DMSO); Methylthiazolyldiphenyl-tetrazolium bromide (MTT, 5 mg/mL); and Griess reagent nitrite measurement kit (Beyotime Biotechnology Co., Ltd).
The compounds were respectively dissolved in DMSO to obtain a series of 10 mM stock solutions, which were diluted with Dulbecco's modified eagle medium (DMEM) to a required concentration (DMSO<2%) for use.
RAW264.7 cells (1×10^5 cells/mL) were inoculated into a 96-well plate at 100 μL per well and incubated at 37° C. and 5% CO2 for 12 h. Different concentrations of samples containing LPS (with a final concentration of 1 μg/mL) were respectively loaded on the plate. […] After that, the absorbance of each well of the 96-well plate at 540 nm was measured with a microplate reader and then plugged into the standard curve to calculate the NO release level. […]

| IC50 [1] [µM] | IC50 [2] [µM] | SMILES |
| --- | --- | --- |
| 120 | – | CC(=O)Oc1ccccc1C(=O)O [aspirin] |
| – | 38 | COc1ccc2c(c1)c(CC(=O)O)c(C)n2C(=O)c1ccc(Cl)cc1 [indomethacin] |
